From patent publication US20230287061A1, “NEW ANTIMICROBIAL PEPTIDES” (priority 2020, published 2023)
Ends that are not written are not given here.

Tested on: B. cereus

Sequence: ALLKVLFSWFRKHNSRRKNLPAKN [Seq ID no2]
- MIC: 256 µg/mL
